These results are taken from US20180036270A1, “A METHOD OF PROTECTING AGAINST CARBONYL STRESS INDUCED ISCHEMIA-REPERFUSION INJURY IN THE DIABETIC BRAIN VIA ADMINISTRATION OF N-ACETYLCYSTEINE” (Board of Supervisors of Louisiana State University and …, priority 2015, published 2018).

Entries after “also recorded” stand apart in the source; their conditions may differ.

Experiment [1] deals with STZ-treated diabetic mice, I/R brain injury. Kind of experiment: Middle cerebral artery occlusion-reperfusion (MCAoR) brain infarct area in diabetic mice. The experiment is classed as in vivo, mouse. The following applies: 2 mM NAC in drinking water 1 or 3 weeks before MCAoR, 45 min ischemia, 24 h reperfusion. On the procedure:
Turning now to FIGS. 1A-1C, a brief description concerning the various components of the present invention will now be briefly discussed. As shown, ischemia/reperfusion (I/R) injury in control and diabetic brain was determined using the middle cerebral artery occlusion-reperfusion (MCAoR) model of Koizumi. MCA occlusion was for 45 min and reperfusion for 24 h. Diabetes model were: mice injected with streptozotocin (STZ) or Akita mice lacking the Insulin-2 gene which spontaneously developed diabetes in 4 wks. Results are mean±SE. NT=no treatment; Veh=citrate buffer; Veh+STZ=4 week post STZ. Ak—Akita. The post I/R infarct area is represented by the unstained (white) regions of left brain sections.
Turning to FIGS. 12A-12C, I/R injury in control and diabetic brain was determined using the middle cerebral artery occlusion-reperfusion (MCAoR) model of Koizumi. MCA occlusion was for 45 min and reperfusion for 24 h. Diabetes was induced with streptozotocin (STZ) and stroke was induced in 4-week diabetic mice. NAC (2 mM) was given in drinking water for 3 weeks. Results are mean±SE. Veh=citrate buffer; STZ=4 week post STZ. The post I/R infarct area is represented by the unstained (white) regions of left brain sections after staining with TTC.
Four-week-old male C57BL/6J mice, weighing 18-20 g, were purchased from Jackson Laboratory. […]

Experiment [2] in a line: Plasma glucose levels in diabetic mice. The experiment is classed as in vivo, mouse. To be noted: 2 mM NAC for 3 weeks, 4 week diabetic mice. On the procedure: Plasma levels in diabetic mice were elevated at ˜[…] which was 3-fold higher than controls (˜200 mg/dL). The percent (%) brain infarct area in vehicle- and STZ treated mice is linearly correlated with the plasma glucose level.
Four-week-old male C57BL/6J mice, weighing 18-20 g, were purchased from Jackson Laboratory. These mice were maintained at the Animal Facility of the Louisiana State University Health Sciences Center—Shreveport. Animal care and use in the experiments follow the guidelines in the Guide for the Care and Use of Laboratory Animals, published by the US National Institutes of Health. Following adaptation for 1 week, the mice were divided randomly into 4 groups: non-treated sham operation group (NT-sham group, n=6), non-treated I/R group (NT-I/R group, n=5), vehicle I/R group (Veh-I/R group, n=24), and streptozotocin I/R group (STZ-I/R group, n=19). […] On day 7, mice whose plasma glucose was more than 300 mg/dl were deemed to be diabetic. […] Another Veh-treated mice were injected (intraperitoneally, 12 hr interval) with 0.5M BSO 24 h before the ischemia operation and during the 24 h reperfusion period (Veh+BSO group, n=10). All mice were 9 weeks old at sacrifice.

Experiment [3] has as its system cerebral microvessels of STZ diabetic mice. Description: Light-dye induced thrombosis in cerebral arterioles and venules of STZ diabetic mice. The experiment is classed as in vivo, mouse.
The test system of experiment [4] is MG-protein adducts, occludin, GCLc in diabetic mouse brain. Description: Western blot of MG-protein adducts, occludin, GCLc and occludin glycation in brain. The following applies: STZ mice, NAC 3 weeks. Type of experiment: in vivo. As for the experimental part:
Representative immunoblots are shown. The bar graphs show the quantitation of the protein band intensities normalized to β-actin; n=5/grp. […] Brain tissues were homogenized with RIPA lysis buffer containing 50 mM Tris, pH 8.0, 150 mM sodium chloride, 0.5% sodium deoxycholate, 0.1% SDS and protease inhibitor cocktail. Total protein (20 μg) per sample was loaded on 10% SDS-polyacrylamide gels. Electrophoresis was performed at 150V for 1 h, and transfer onto PVDF membranes at 100 V for 1 h. The membranes were blocked in 5% nonfat milk in TBST buffer containing 20 mM Tris, 137 mM NaCl, 0.1% Tween20, pH 7.6 for 40 min at room temperature followed by overnight incubation with either rabbit-anti-mouse occludin polyclonal antibody (1:2000), rabbit-anti-mouse GCGc polyclonal antibody (1:2000) or mouse anti-MG monoclonal antibody (1:2000) at 4° C. on an agitator. The second day, the PVDF membranes were incubated with HRP-conjugated goat-anti-rabbit or sheep-anti-mouse secondary antibody (1:10000) for 2 h at room temperature. Protein expression was detected using enhanced chemiluminescence (BIO-RAD) according to the manufacturer's instructions. The membranes were stripped and reprobed with anti-mouse actin monoclonal antibody (1:5000) to verify equal protein loading.
On the technique in general: In western blotting, separated proteins are transferred to a membrane and probed.

Experiment [5] relates to blood-brain barrier (BBB). Kind of experiment: Blood-brain barrier permeability by Evans Blue extrusion. The following applies: STZ mice, NAC 3 weeks. The experiment is classed as in vivo, mouse.

On to `CC(=O)N[C@@H](CS)C(=O)O` [NAC, N-acetylcysteine], for which, in experiment [1], the percent infarct area entry was “significantly attenuated; also recorded: protects the diabetic brain against injury induced by I/R”. For the same compound, in experiment [2], the plasma glucose levels entry was “did not alter”. Moreover, the “thrombosis onset and cessation times in cerebral venules and arterioles” value in experiment [3] (6 and 20 week diabetic mice, NAC 2 mM in drinking water for 3 weeks) is given as “provided protection against the accelerated thrombosis in both types of vessels”. In experiment [3] (20 week diabetic mice, NAC 2 mM in drinking water for 1 week), the “time to onset of thrombosis in brain microvessels” value is “decreases the accelerated onset of thrombosis”. In experiment [4], the “MG-adduct formation in brain” value is given as “significantly decreased”, the “occludin glycation in brain (immunoprecipitation)” value was “significantly decreased”, the “total protein expression of GCLc” value is “does not alter” and the “total protein expression of occludin” value is given as “does not alter”. For the same compound, in experiment [5], the “leakage of Evans Blue (BBB permeability)” value is “significantly decreased”.
